Article PMC9695821, “Synthesis and Evaluation of NF-κB Inhibitory Activity of Mollugin Derivatives” (Molecules, 2022)
Marks after values point to notes of the source that are not given here.

Columns and labels:
[1] = system: NF-κB transcriptional activity; test: NF-κB luciferase reporter assay in HeLa cells; assay type: cell-based; conditions: Homo sapiens, NF-κB luciferase reporter, 24 h treatment, hypoxic conditions, mean, n = 3
Protocol: A NF-κB-Luc plasmid for NF-κB luciferase reporter assay was obtained from Strategene (La Jolla, CA, USA). Transfections were performed as previously described. NF-κB-dependent luciferase activity was measured using the Dual-luciferase reporter assay system. Briefly, HeLa cells (1 × 10^5 cells/well) were seeded in a 96-well plate for 24 h. The cells were then transfected with plasmids for each well and then incubated for a transfection period of 24 h. […] Luciferase activity was determined in MicroLumat plus luminometer (EG&G Berthold, Bad Wildbad, Germany) by injecting 100 µL of assay buffer containing luciferin and measuring light emission for 10 s. Co-transfection with pRL-CMV (Promega, Madison, WI, USA), which expresses Renilla luciferase, was performed to enable normalization of data for transfection efficiency.

[2] = MTT cytotoxicity / cell viability assay; assay type: cell-based; conditions: human; MTT assay, HeLa cells, 24 h treatment, normoxic conditions; mean, n = 3
Protocol: HeLa cells were inoculated and cultured in 96-well plates. After the cells adhered to the wall, the prepared target compounds with different concentrations were added to all plates for 24 h and then cultured in 5 mg/mL MTT solution for 4 h. The culture solution in the holes was sucked out, and DMSO reagent was added. After the crystallization was fully dissolved, the absorbance at 570 nm was measured by Multiskan GO.

xylene-induced ear edema [3] = test: Xylene-induced ear edema test, initial screening (i.p.); assay type: in vivo; conditions: mice; for inhibition in vivo at 100 mg/kg: Mus musculus, ip, 0.5 h, n = 6, read-out: Inhibition Rate; for Edema Mean ± SD: 100 mg/kg, n = 6
Protocol: In vivo inhibition test of xylene induced ear edema in mice was performed to evaluate its anti-inflammatory activity.
In the initial screening, mice (male) were randomly divided into experimental group, positive control drug ibuprofen and Mesalazine group, and blank group. All target compounds were dissolved in dimethyl sulfoxide, and corresponding drugs were intraperitoneally injected into experimental group, positive control group and blank group, respectively. Mice were treated with 100 mg/kg, 0.1 mL/20 g body weight, and control mice received only DMSO (0.1 mL/20 g body weight). After 30 min, 20 μL of xy-lene was evenly applied on both sides of the right ear of the mice. After 30 min of xy-lene was applied, the mice were sacrificed by cutting off their necks. Then the left and right ears of the mice were drilled with a hole punch with a diameter of 7 mm, respec-tively, to obtain two round ear pieces. The degree of swelling (right ear mass–left ear mass) was calculated for each sample, and the swelling inhibition rate of each drug was calculated using the following formula. The inhibition rate of swelling degree (%) = (mean ear swelling degree of mice in blank group […] mean ear swelling degree of mice in target compound group)/mean ear swelling degree of mice in blank group × 100%. The data were processed by GraphPadPrism 5 and expressed as mean data ± SEM. One-way ANOVA method was used for statistical analysis of relevant data. A value of p < 0.05 in the chart indicates significant and statistically significant data dif-ference.

xylene-induced ear edema [4] = test: Xylene-induced ear edema test, deep screening (oral); assay type: in vivo; conditions: mice
Protocol: In the deep screening, mice were divided into target compound group, positive control group (ibuprofen), and blank group (8 male mice in each group). Target com-pound and ibuprofen were dissolved in sodium carboxymethyl cellulose aqueous solu-tion (sodium carboxymethyl cellulose to water, mass ratio 1:1000); the blank group was sodium carboxymethyl cellulose aqueous solution (sodium carboxymethyl cellu-lose to water, mass ratio 1:1000). The anti-inflammatory activities of each compound in the target compound group, positive control group, and blank group were measured at 1, 2, 3, 4, 6, 9, 12 and 24 h after taking the drug. The experimental operation and calculation method are the same as the initial screening part.

SMILES	IC50 [1] [µM]	IC50 at 24 h [2] [µM]	inhibition in vivo at 100 mg/kg (xylene-induced ear edema [3]) [%]	Edema Mean ± SD (xylene-induced ear edema [3]) [mg]	melting point [°C]	also measured
COC(=O)c1c2c(c3ccccc3c1OCC(=O)Nc1ccccc1)OC(C)(C)C=C2 [Compound 4a, Methyl 2,2-dimethyl-6-(2-oxo-2-(phenylamino)ethoxy)-2H-benzo [h] chromene-5-carboxyate]	> 100	> 100	38.6	4.0500 ± 0.6188	118 to 120	
COC(=O)c1c2c(c3ccccc3c1OCC(=O)Nc1ccc(Cl)cc1)OC(C)(C)C=C2 [Compound 4b, Methyl 6-(2-((4-chlorophenyl)amino)-2-oxoethoxy)-2,2-dimethyl-2H-benzo [h] chromene-5-carboxylate]	> 100	> 100	55.8	2.9167 ± 0.8029	122 to 124	
COC(=O)c1c2c(c3ccccc3c1OCC(=O)Nc1ccc(Br)cc1)OC(C)(C)C=C2 [Compound 4c, Methyl 6-(2-((4-bromophenyl)amino)-2-oxoethoxy)-2,2-dimethyl-2H-Benzo [h] chromene-5-carboxylate]	> 100	> 100	49.2	3.3500 ± 1.0579	125 to 127	
COC(=O)c1c2c(c3ccccc3c1OCC(=O)Nc1ccccc1C)OC(C)(C)C=C2 [Compound 4g, Methyl 2,2-dimethyl-6-(2-oxo-2-(o-tolylamino)ethoxy)-2H-Benzo [h] chromene-5-carboxylate]	> 100	> 100	42.4	3.8000 ± 0.5066	122 to 124	
COC(=O)c1c2c(c3ccccc3c1OCC(=O)Nc1cccc(C)c1)OC(C)(C)C=C2 [Compound 4h, Methyl 2,2-dimethyl-6-(2-oxo-2-(m-tolylamino)ethoxy)-2H-benzo [h] chromene-5-carboxylate]	> 100	> 100	62.4	2.4833 ± 1.5464	122 to 124	
COC(=O)c1c2c(c3ccccc3c1OCC(=O)NC1CCN(Cc3ccccc3)CC1)OC(C)(C)C=C2 [Compound 6a, Methyl 6-(2-((1-benzylpiperidin-4-yl)amino)-2-oxoethoxy)-2,2-dimethyl-2H-benzo [h] chromene-5-carboxylate]	49.3	> 100	56.6	2.8667 ± 1.2645	115 to 117	
COC(=O)c1c2c(c3ccccc3c1OCC(=O)Nc1ccncc1C)OC(C)(C)C=C2 [Compound 6b, Methyl 2,2-dimethyl-6-(2-((3-methylpyridin-4-yl)amino)-2-oxoethoxy)-2H-benzo [h] chromene-5-carboxylate]	41.9	> 100	63.1	2.4333 ± 0.1795	123 to 125	
COC(=O)c1c2c(c3ccccc3c1OCC(=O)NCc1ccc(Cl)cc1)OC(C)(C)C=C2 [Compound 6c, Methyl 6-(2-((4-chlorobenzyl)amino)-2-oxoethoxy)-2,2-dimethyl-2H-benzo [h] chromene-5-carboxylate]	23.1	> 100	73.2	1.7667 ± 0.3037	130 to 132	
COC(=O)c1c2c(c3ccccc3c1OCC(=O)Nc1ccncc1)OC(C)(C)C=C2 [Compound 6e, Methyl 2,2-dimethyl-6-(2-oxo-2-(pyridin-4-ylamino)ethoxy)-2H-benzo [h] chromene-5-carboxylate]	> 100	> 100	65.9	2.2500 ± 0.3403	126 to 128	
COC(=O)c1c2c(c3ccccc3c1OCC(=O)NC1CC1)OC(C)(C)C=C2 [Compound 6f, Methyl 6-(2-(cyclopropylamino)-2-oxoethoxy)-2,2-dimethyl-2H-benzo [h] chromene-5-carboxylate]	> 100	> 100	57.3	2.8167 ± 0.6962	134 to 136	
COC(=O)c1c2c(c3ccccc3c1OCC(=O)NC(c1ccccc1)c1ccccc1)OC(C)(C)C=C2 [Compound 6g, Methyl 6-(2-(benzhydrylamino)-2-oxoethoxy)-2,2-Dimethyl-2H-benzo [h] chromene-5-carboxylate]	> 100	> 100	58.6	2.7333 ± 0.4819	127 to 129	
COC(=O)c1c2c(c3ccccc3c1OCC(=O)Nc1cnccn1)OC(C)(C)C=C2 [Compound 6h, Methyl 2,2-dimethyl-6-(2-oxo-2-(pyrazin-2-ylamino)ethoxy)-2H-benzo [h] chromene-5-carboxylate]	4.93	> 100	72.7	1.8000 ± 0.6880	121 to 123	
COC(=O)c1c2c(c3ccccc3c1OCC(=O)Nc1ccc(C)nc1)OC(C)(C)C=C2 [Compound 6i, Methyl 2,2-dimethyl-6-(2-((6-methylpyridin-3-yl)amino)-2-oxoethoxy)-2H-benzo [h] chromene-5-carboxylate]	> 100	> 100	42.9	3.7667 ± 1.1571	119 to 121	
COC(=O)c1c2c(c3ccccc3c1OCC(=O)Nc1cccc3cccnc13)OC(C)(C)C=C2 [Compound 6j, Methyl 2,2-dimethyl-6-(2-oxo-2-(quinolin-8-ylamino)ethoxy)-2H-benzo [h] chromene-5-carboxylate]	18.6	> 100	75.2	1.6333 ± 0.4384	113 to 115	
COC(=O)c1c2c(c3ccccc3c1OCC(=O)Nc1ccc3ccccc3n1)OC(C)(C)C=C2 [Compound 6k, Methyl 2,2-dimethyl-6-(2-oxo-2-(quinolin-2-ylamino)ethoxy)-2H-benzo [h] chromene-5-carboxylate]	> 100	> 100	66.9	2.1833 ± 0.6414	116 to 118	
COC(=O)c1c2c(c3ccccc3c1O)OC(C)(C)C=C2 [Mollugin]	> 100	> 100	54	3.0333 ± 0.9655		
CC(C)Cc1ccc(C(C)C(=O)O)cc1 (centres unmarked) [ibuprofen, reference compound]			49.8	3.3167 ± 0.5550		Inhibition (xylene-induced ear edema [4]; 100 mg/kg, time 1 h): 22.98% ***; Inhibition (xylene-induced ear edema [4]; 100 mg/kg, time 2 h): 33.33% ***; Inhibition (xylene-induced ear edema [4]; 100 mg/kg, time 3 h): 44.95% ***; Inhibition (xylene-induced ear edema [4]; 100 mg/kg, time 4 h): 47.47%; Inhibition (xylene-induced ear edema [4]; 100 mg/kg, time 4 h, listed as Ibuprfen): 47.47% ***; Inhibition (xylene-induced ear edema [4]; 100 mg/kg, time 6 h (Table 5)): 44.44% ***; Inhibition (xylene-induced ear edema [4]; 100 mg/kg, time 9 h): 34.60% ***; Inhibition (xylene-induced ear edema [4]; 100 mg/kg, time 12 h): 19.95% **; Inhibition (xylene-induced ear edema [4]; 100 mg/kg, time 24 h): 14.65% *; Inhibition (xylene-induced ear edema [4]; dose series, 25 mg/kg, 6 h): 28.95% *; Inhibition (xylene-induced ear edema [4]; dose series, 50 mg/kg, 6 h): 32.68% **; Inhibition (xylene-induced ear edema [4]; dose series, 100 mg/kg, 6 h (Table 6)): 43.32% ***
Nc1ccc(O)c(C(=O)O)c1 [mesalazine, reference compound]			51.3	3.2167 ± 1.1067		
